Columns and labels:
microvesicles in plasma = test: Nanoparticle tracking analysis of microvesicles in plasma from stressed rats treated with MARCKS peptides; format: binding, rat; details: Alexa Fluor 546 labeled peptides 55 nM
Experimental: These isolated microvesicles were measured by nanoparticle tracking analysis (NTA) to confirm their average size (ø=56 nm). Tracking analyses were performed using the NanoSight LM10-HS instrument (Amesbury, UK) equipped with a 532 nm laser and observed at scatter and fluorescence modes (filter=550 nm). The instrument was calibrated using commercially available 50 nm polystyrene beads. […] Alexa Fluor 546™-labeled mouse anti-rat CD63 and unconjugated Alexa Fluor 546™ were used as positive and negative controls, respectively. The profiles of MARCKS-ED-Alexa Fluor 546™ and Alexa Fluor 546™ in the absence of microvesicles were also investigated to confirm that these show negligible scatter and fluorescence background signals under identical NTA conditions.
FIG. 5A represents fluorescence enhancement assay with MARCKS-ED incubated with the isolated microvesicles. Peptide MARCKS-ED ([…]) not treated with microvesicles was used as a negative control. Annexin-V (a positive control) and MARCKS-ED were incubated with the isolated rat microvesicles. Fluorescence was normalized to the negative control. […] The diameter size and particle count of the isolated microvesicles detected by MARCKS-ED was further quantified. Nanoparticle tracking analysis (NTA) uses a laser for scatter and fluorescence modes to track small particles by Brownian motion, providing a robust method for detecting nano-sized microvesicles. Under the fluorescence mode with the emission filter set for the Alexa Fluor 546™, the particles that bound to MARCKS-ED, MARCKSmut1, and MARCKSmut2peptides were observed.
FIG. 5B illustrates the results of NTA of microvesicles treated with MARCKS derived peptides. […] The untreated plasma samples were detected using the scatter mode and treated samples were monitored by tracking the fluorescence of Alexa Fluor 546™ conjugated to the MARCKS-ED MARCKSmut1 and MARCKSmut2 peptides. […] Furthermore, blank samples were performed to rule out possible artifacts of background fluorescence from the peptides, the vesicles and the unconjugated dye.

[1] = biological target: lipid vesicles 60% POPC:15% cholesterol:15% POPE:10% POPS; test: Fluorescence anisotropy titration of NBD-labeled MARCKS peptides with lipid vesicles; format: binding
Experimental: In another example, because fluorescence enhancement assays could not distinguish the contributions between different degrees of membrane penetration and binding affinity, fluorescence anisotropy assay was performed to specifically measure the binding affinity of the MARCKS derived peptides. The NBD-labeled peptides (1 μM) were titrated by synthetic liposomes of various sizes (30, 100, and 400 nm). Fluorescence anisotropy was recorded using a Fluorolog-3 fluorometer. The mixture was allowed to equilibrate for 2 minutes prior to the next titration. The excitation wavelength was set to λex=480 nm whereas the emission filter was set to λem=545 nm. The voltage was set to 250 V throughout the experiment. Blank PBS (pH=7.40) was titrated to NBD-labeled peptides as a negative control, where negligible anisotropy change was observed. The following equation was used to determine the dissociation constants as previously reported: Fb=Kp [L]/(1+KP[L]), where Fb expresses the fraction of peptide bound to lipids, Kp expresses the molar partition coefficient and [L] expresses the lipid concentration.
Lipid vesicles were titrated to NBD-labeled MARCKS-ED, MARCKSmut1, or MARCKSmut2 peptides. Since the peptide partitions between the hydrophobic lipid bilayer and the aqueous solvent, the molar partition coefficient is often reported. By definition, the apparent dissociation constant (Kd), described as the lipid concentration where 50% of the peptide is bound, is the reciprocal of the molar partition coefficient (Kp). Fluorescence anisotropy assay results indicated efficient curvature sensing by MARCKS-ED. FIG. 4C represents an exemplary fluorescence anisotropy titration of MARCKS-ED with various lipid vesicles. FIG. 4D provides data of fluoresence anisotropy titration of various MARCKS derived peptides. Lipid vesicles used in the experiments represented by FIGS. 4C-4D contained 60% POPC:15% cholesterol: 15% POPE: 10% POPS. […] As a comparison, C2AB illustrated a 1.9 fold increase in binding to smaller vesicles (105 nm) relative to the larger ones (252 nm). […] In addition, electrostatic interactions of MARCKSmut2 were also compromised. […] Such defects would permit the Phe residue to insert and stabilize the highly curved membranes.

[2] = tested on: synthetic vesicles of sizes 100 nm and 400 nm; test: Cosedimentation assay of MARCKS-ED with synthetic vesicles; format: binding
From the text: In another exemplary method, lipid vesicles were employed to the curvature-sensing behavior of the MARCKS derived peptides with various sizes and lipid components. The membrane curvature is defined as the reciprocal of the diameter of a particular particle, e.g., smaller-sized vesicles present highly curved membrane bilayers. A series of lipid models were made to represent various lipid components that closely resemble the lipid composition of biological membranes. […] Dynamic light scattering (DLS) and negative-stain transmission electron microscopy (TEM) were performed to confirm the different vesicle sizes following the pressure-controlled extrusion process through different membrane diameter pores. Commercial polystyrene beads were used as the calibration standard for the vesicle size validation experiments. Furthermore, a time-course experiment was carried out to confirm the stability of the vesicles up to 16 hours. Three different membrane diameters were extruded for the following biophysical characterizations: 30 nm, 100 nm, 400 nm, reflecting different membrane curvatures.
In another exemplary method, a cosedimentation assay was performed to test the size differentiation behavior of MARCKS-ED. Two vesicle pore sizes, 100 and 400 nm, were used in this experiment because vesicles smaller than 100 nm were difficult to pellet even at high centrifugation speed. MARCKS-ED (10 μM) was incubated with 600 μM synthetic vesicles of sizes 100 nm and 400 nm. The positive control was the intact C2A-C2B cytoplasmic domains (C2AB) of rat Synaptotamin-1 (a.a. 96-421). C2AB (1.5 μM) was treated with CaCl2 (1 mM) and incubated with 300 μM synthetic vesicles of sizes 100 nm and 400 nm. C2AB treated with vesicles was incubated at room temperature for 30 minutes, followed by centrifugation of 65,000 rpm for 45 minutes at 20° C. MARCKS-ED treated with vesicles was incubated at room temperature for 2 hours, followed by 75,000 rpm for 45 minutes at 20° C. […]

- Kd ([1]; 30 nm pore size lipid vesicles containing 10% PS): 24 ± 3 µM
- Kd ([1]; 100 nm pore size lipid vesicles containing 10% PS): 42 ± 13 µM
- Kd ([1]; 400 nm pore size lipid vesicles containing 10% PS): 86 ± 20 µM
Sequence: KKKKKRFSFKKSFKLSGFSFKKNKK [MARCKS-ED]
- binding to microvesicles in whole plasma (NTA fluorescence mode) (microvesicles in plasma): selectively bind to small-sized microvesicles in whole plasma
- pull-down by lipid vesicles without PS [2]: less MARCKS-ED was pulled down
- pull-down by 100 nm vs 400 nm PS-containing vesicles ([2]; gel electrophoresis of supernatant and pellet): binds more tightly to highly curved vesicles containing PS

Reference: patent US20150093333A1, “COMPOSITIONS, METHODS AND USES FOR PEPTIDES IN DIAGNOSIS, PROGRESSION AND TREATMENT OF CANCERS” (THE REGENTS OF THE UNIVERSITY OF COLORADO, body corporate, priority 2003, published 2015)
